Results: patent publication US7973033B2, “Multi-cyclic cinnamide derivatives” (Eisai R&D Management Co., Ltd., priority 2006, dated 2011)

Tested on: Aβ 42 production
Test: Quantification of Aβ Peptide in Culture of Neurons from Rat Fetus Brain
Type: cell-based
Details: Neuron, 72 h; rat primary neuronal culture (cerebral cortex, embryonic day 18 Wistar rats); medium collected three days after addition of the compound; Aβ ELISA; read-out: Effect of reducing Aβ 42 production IC50
Procedure: Quantification of Aβ Peptide in Culture of Neurons from Rat Fetus Brain
(1) Rat Primary Neuronal Culture
Primary neuronal cultures were prepared from the cerebral cortex of embryonic day 18 Wistar rats (Charles River Japan, Yokohama, Japan). Specifically, the embryos were aseptically removed from pregnant rats under ether anesthesia. The brain was isolated from the embryo and immersed in an ice-cold L-15 medium (Invitrogen Corp. Cat #11415-064, Carlsbad, Calif., USA, or SIGMA L1518, for example). The cerebral cortex was collected from the isolated brain under a stereoscopic microscope. The cerebral cortex fragments collected were enzymatically treated in an enzyme solution containing 0.25% trypsin (Invitrogen Corp. Cat #15050-065, Carlsbad, Calif., USA) and 0.01% DNase (Sigma D5025, St. Louis, Mo., USA) at 37° C. for 30 minutes to disperse the cells. Here, the enzymatic reaction was stopped by adding inactivated horse serum to the solution. The enzymatically treated solution was centrifuged at 1,500 rpm for five minutes to remove the supernatant. 5 to 10 ml of a medium was added to the resulting cell mass. Neurobasal medium (Invitrogen Corp. Cat #21103-049, Carlsbad, Calif., USA) supplemented with 2% B27 supplement (Invitrogen Corp. Cat #17504-044, Carlsbad, Calif., USA), 25 μM 2-mercaptoethanol (2-ME, WAKO Cat #139-06861, Osaka, Japan), 0.5 mM L-glutamine (Invitrogen Corp. Cat #25030-081, Carlsbad, Calif., USA), and Antibiotics-Antimycotics (Invitrogen Corp. Cat #15240-062, Carlsbad, Calif., USA) was used as the medium (Neurobasal/B27/2-ME). However, the above Neurobasal medium not supplemented with 2-ME (Neurobasal/B27) was used for the assay. The cells were redispersed by mild pipetting of the cell mass to which the medium was added. The cell dispersion was filtered through a 40-μm nylon mesh (Cell Strainer, Cat #35-2340, Becton Dickinson Labware, Franklin Lakes, N.J., USA) to remove the remaining cell mass, and thus a neuronal cell suspension was obtained. The neuronal cell suspension was diluted with the medium and then plated in a volume of 100 μl/well at an initial cell density of 5×10^5 cells/cm^2 in a 96-well polystyrene culture plate pre-coated with poly-L or D-lysine (Falcon Cat #35-3075, Becton Dickinson Labware, Franklin Lakes, N.J., USA coated with poly-L-lysine using the method shown below, or BIOCOAT™ cell environments Poly-D-lysine cell ware 96-well plate, Cat #35-6461, Becton Dickinson Labware, Franklin Lakes, N.J., USA). Poly-L-lysine coating was carried out as follows. 100 μg/ml of a poly-L-lysine (SIGMA P2636, St. Louis, Mo., USA) solution was aseptically prepared with a 0.15 M borate buffer (pH 8.5). 100 μl/well of the solution was added to the 96-well polystyrene culture plate and incubated at room temperature for one or more hours or at 4° C. overnight or longer. The coated 96-well polystyrene culture plate was washed with sterile water four or more times, and then dried or rinsed with, for example, sterile PBS or medium, and used for cell plating. The plated cells were cultured in the culture plate at 37° C. in 5% CO2-95% air for one day. Then, the total amount of the medium was replaced with a fresh Neurobasal™/B27/2-ME medium, and then the cells were cultured for further three days.
The drug was added to the culture plate on Day 4 of culture as follows. The total amount of the medium was removed from the wells, and 180 μl/well of Neurobasal medium not containing 2-ME and containing 2% B-27 (Neurobasal/B27) was added thereto. A solution of the test compound in dimethyl sulfoxide (hereinafter abbreviated as DMSO) was diluted with Neurobasal/B27 at 10-fold of the final concentration. 20 μl/well of the dilution was added to and sufficiently mixed with the medium. The final DMSO concentration was 1% or less. Only DMSO was added to the control group.
The cells were cultured for three days after addition of the compound, and the total amount of the medium was collected. […]

Structure (SMILES) | IC50 [nM]
COc1cc(/C=C/c2nnc(CCc3ccc(F)cc3)[nH]2)ccc1-n1cnc(C)c1 [Example 32, 3-[2-(4-fluorophenyl)ethyl]-5-{(E)-2-[3-methoxy-4-(4-methyl-1H-imidazol-1-yl)phenyl]vinyl}-4H-[1,2,4]triazole] | 62
COc1cc(/C=C/c2nc3n(n2)CCOC3c2ccc(Br)cc2)ccc1-n1cnc(C)c1 (single isomer, unassigned; (-)) [Example 143, (−)-8-(4-bromophenyl)-2-{(E)-2-[3-methoxy-4-(4-methyl-1H-imidazol-1-yl)phenyl]vinyl}-5,6-dihydro-8H-[1,2,4]triazolo[5,1-c][1,4]oxazine] | 22
COc1cc(/C=C/c2nc3n(n2)CCC[C@@]3(O)c2cccc3ccccc23)ccc1-n1cnc(C)c1 (single isomer, unassigned) [Example 136, (−)-2-{(E)-2-[3-methoxy-4-(4-methyl-1H-imidazol-1-yl)phenyl]vinyl}-8-naphthalen-1-yl-5,6,7,8-tetrahydro[1,2,4]triazolo[1,5-a]pyridin-8-ol] | 24
COC(=O)c1nc2n(c1-c1ccc(F)cc1)CCC/C2=C\c1ccc(-n2cnc(C)c2)c(OC)c1 [Example 21, methyl 3-(4-fluorophenyl)-8-{1-[3-methoxy-4-(4-methyl-1H-imidazol-1-yl)phenyl]-(E)-methylidene}-5,6,7,8-tetrahydroimidazo[1,2-a]pyridine-2-carboxylate] | 41
COc1cc(/C=C/c2nc(-c3ccccc3)c[nH]2)ccc1-n1cnc(C)c1 [Example 4, 2-{(E)-2-[3-methoxy-4-(4-methyl-1H-imidazol-1-yl)phenyl]vinyl}-4-phenyl-1H-imidazole] | 76
COc1cc(/C=C/c2nc(-c3ccc(F)cc3)c3n2CCN(C)C3)ccc1-n1cnc(C)c1 [Example 15, 1-(4-fluorophenyl)-3-{(E)-2-[3-methoxy-4-(4-methyl-1H-imidazol-1-yl)phenyl]vinyl}-7-methyl-5,6,7,8-tetrahydroimidazo[1,5-a]pyrazine] | 180
COc1cc(/C=C/c2nnc(Cc3ccc(F)cc3)[nH]2)ccc1-n1cnc(C)c1 [Example 17, 3-(4-fluorobenzyl)-5-{(E)-2-[3-methoxy-4-(4-methyl-1H-imidazol-1-yl)phenyl]vinyl}-4H-[1,2,4]triazole] | 58
COc1cc(/C=C/c2nc3n(n2)CCC[C@H]3c2ccccc2)ccc1-n1cnc(C)c1 (single isomer, unassigned) [Example 172, (−)-2-{(E)-2-[3-methoxy-4-(4-methyl-1H-imidazol-1-yl)phenyl]vinyl}-8-phenyl-5,6,7,8-tetrahydro[1,2,4]triazolo[1,5-a]pyridine] | 11
COc1cc(/C=C/c2nc3n(n2)CCCC3c2cc(F)c(F)c(F)c2)cnc1-n1cnc(C)c1 (single isomer, unassigned) [Example 60, (−)-2-{(E)-2-[5-methoxy-6-(4-methyl-1H-imidazol-1-yl)pyridin-3-yl]vinyl}-8-(3,4,5-trifluorophenyl)-5,6,7,8-tetrahydro[1,2,4]triazolo[1,5-a]pyridine] | 40
COc1cc(/C=C/c2nc(-c3ccc(F)cc3)c(C(=O)NCCCl)[nH]2)ccc1-n1cnc(C)c1 [Example 9, 5-(4-fluorophenyl)-2-{(E)-2-[3-methoxy-4-(4-methyl-1H-imidazol-1-yl)phenyl]vinyl}-1H-imidazole-4-carboxylic acid (2-chloroethyl)amide] | 83
COc1cc(/C=C/c2nc3n(n2)CCOC3c2ccc(OC(F)(F)F)cc2)ccc1-n1cnc(C)c1 (single isomer, unassigned) [Example 135, (−)-2-{(E)-2-[3-methoxy-4-(4-methyl-1H-imidazol-1-yl)phenyl]vinyl}-8-(4-trifluoromethoxyphenyl)-5,6-dihydro-8H-[1,2,4]triazolo[5,1-c][1,4]oxazine] | 43
COc1ccc([C@@H]2CCCn3nc(/C=C/c4ccc(-n5cnc(C)c5)c(OC)c4)nc32)cc1 (single isomer, unassigned) [Example 75, (−)-2-{(E)-2-[3-methoxy-4-(4-methyl-1H-imidazol-1-yl)phenyl]vinyl}-8-(4-methoxyphenyl)-5,6,7,8-tetrahydro-[1,2,4]triazolo[1,5-a]pyridine] | 45
COc1cc(/C=C/c2nc3n(n2)CCCC3(O)c2cc(F)c(F)c(F)c2)ccc1-n1cnc(C)c1 (single isomer, unassigned) [Example 66, (−)-2-{(E)-2-[3-methoxy-4-(4-methyl-1H-imidazol-1-yl)phenyl]vinyl}-8-(3,4,5-trifluorophenyl)-5,6,7,8-tetrahydro[1,2,4]triazolo[1,5-a]pyridin-8-ol] | 20
COc1cc(/C=C/c2nc3n(n2)CCC[C@H]3c2ccccc2Br)ccc1-n1cnc(C)c1 (single isomer, unassigned) [Example 174, (−)-8-(2-bromophenyl)-2-{(E)-2-[3-methoxy-4-(4-methyl-1H-imidazol-1-yl)phenyl]vinyl}-5,6,7,8-tetrahydro[1,2,4]triazolo[1,5-a]pyridine] | 23
COc1cc(/C=C(\F)c2nc3n(n2)CCC[C@@H]3c2cc(F)c(F)c(F)c2)ccc1-n1cnc(C)c1 (single isomer, unassigned) [Example 58, (−)-2-{(Z)-1-fluoro-2-[3-methoxy-4-(4-methyl-1H-imidazol-1-yl)phenyl]vinyl}-8-(3,4,5-trifluorophenyl)-5,6,7,8-tetrahydro[1,2,4]triazolo[1,5-a]pyridine] | 39
COc1cc(/C=C/c2nc3n(n2)CCCC3(O)c2ccc(Cl)cc2)ccc1-n1cnc(C)c1 (single isomer, unassigned) [Example 153, (−)-8-(4-chlorophenyl)-2-{(E)-2-[3-methoxy-4-(4-methyl-1H-imidazol-1-yl)phenyl]vinyl}-5,6,7,8-tetrahydro[1,2,4]triazolo[1,5-a]pyridin-8-ol] | 31
COc1cc(/C=C/c2nc3n(n2)CCC[C@@H]3c2c(F)cc(F)cc2F)ccc1-n1cnc(C)c1 (single isomer, unassigned) [Example 64, (−)-2-{(E)-2-[3-methoxy-4-(4-methyl-1H-imidazol-1-yl)phenyl]vinyl}-8-(2,4,6-trifluorophenyl)-5,6,7,8-tetrahydro[1,2,4]triazolo[1,5-a]pyridine] | 28
COc1cc(/C=C/c2nc3n(n2)CCCC3c2ccc(C)cc2)ccc1-n1cnc(C)c1 (single isomer, unassigned) [Example 151, (−)-2-{(E)-2-[3-methoxy-4-(4-methyl-1H-imidazol-1-yl)phenyl]vinyl}-8-p-tolyl-5,6,7,8-tetrahydro[1,2,4]triazolo[1,5-a]pyridine] | 16
COc1cc(/C=C/c2nc(-c3ccc(F)cc3)c(CO)[nH]2)ccc1-n1cnc(C)c1 [Example 7, 5-(4-fluorophenyl)-2-{(E)-2-[3-methoxy-4-(4-methyl-1H-imidazol-1-yl)phenyl]vinyl}-(1H-imidazol-4-yl)methanol] | 67
COc1cc(/C=C/c2nc3n(n2)CCO[C@H]3c2cc(F)c(F)c(F)c2)ccc1-n1cnc(C)c1 (single isomer, unassigned) [Example 77, (−)-2-{(E)-2-[3-methoxy-4-(4-methyl-1H-imidazol-1-yl)phenyl]vinyl}-8-(3,4,5-trifluorophenyl)-5,6-dihydro-8H-[1,2,4]triazolo[5,1-c][1,4]oxazine] | 83
